According to US20110224210A1, “NOVEL BIS-AMIDES AS ANTI-MALARIAL AGENTS” (priority 2008, published 2011):

System: P. falciparum K1 (strain resistant to chloroquine and pyrimethamine), erythrocytic stages
Test: Plasmodium falciparum in vitro assay, [3H] hypoxanthine incorporation
Type: cell-based
Details: Plasmodium falciparum, K1, P. falciparum strain K1; [3H] hypoxanthine incorporation; read-out: IC50 (nM) on K1
Description: In Vitro Antimalarial Activity: Plasmodium falciparum In Vitro Assay
In vitro activity against erythrocytic stages of P. falciparum is determined using a [^3H] hypoxanthine incorporation assay. One strain resistant to chloroquine and pyrimethamine (P. falciparum K1) is used in the assays, and all test compounds are compared for activity with the standard drugs chloroquine (sigma C6628) and artemisinin (sigma-36, 159-3). Compounds are diluted in DMSO to 1 mM and added to parasite cultures incubated in RPMI 1640 medium without hypoxanthine, supplemented with HEPES (5.94 g/L), NaHCO3 (2.1 g/L), neomycin (100 U/mL), Albumax (5 g/L) and washed human red cells at 2.5% haematocrit (0.3% parasitaemia). Seven serial doubling dilutions of each compound are prepared in 96-well microtitre plates and incubated in a humidifying atmosphere at 37° C.; 4% CO2, 3% O2, 93% N2.
After 48 h, 50 μl of [3H] hypoxanthine (0.5 μCi) is added to each well of a plate. The plates are incubated for a further 24 h under the same conditions. The plates are then harvested with a Betaplate cell harvester (Wallac) and washed with distilled water. The dried filters are inserted into a plastic foil with 10 mL of scintillation fluid, and counted in a Betaplate liquid scintillation counter. IC50 values are calculated from sigmoidal inhibition curves using Microsoft Excel.

SMILES	IC50 [nM]
CN(C)C1CCN(C(=O)[C@H](Cc2ccccc2)N(Cc2ccc(-c3cncnc3)cc2)C(=O)C=Cc2ccc(Cl)nc2)CC1 [Example 40, (S)-N-[1-Benzyl-2-(4-dimethylamino-piperidin-1-yl)-2-oxo-ethyl]-3-(6-chloro-pyridin-3-yl)-N-(4-pyrimidin-5-yl-benzyl)-acrylamide]	490
COc1ccc(C=CC(=O)N(Cc2ccc(-c3cncnc3)cc2)[C@@H](Cc2ccccc2)C(=O)N2CCC(N(C)C)CC2)cn1 [Example 41, (S)-N-[1-Benzyl-2-(4-dimethylamino-piperidin-1-yl)-2-oxo-ethyl]-3-(6-methoxy-pyridin-3-yl)-N-(4-pyrimidin-5-yl-benzyl)-acrylamide]	169
CN(C)C1CCN(C(=O)[C@H](Cc2ccccc2)N(Cc2ccc(-c3cncnc3)cc2)C(=O)C=Cc2ccc(C(F)(F)F)cn2)CC1 [Example 42, (S)-N-[1-Benzyl-2-(4-dimethylamino-piperidin-1-yl)-2-oxo-ethyl]-N-(4-pyrimidin-5-yl-benzyl)-3-(5-trifluoromethyl-pyridin-2-yl)-acrylamide]	104
Cc1c(C=CC(=O)N(Cc2ccc(-c3cncnc3)cc2)[C@@H](Cc2ccccc2)C(=O)N2CCC(N(C)C)CC2)cnn1C [Example 43, (S)-N-[1-Benzyl-2-(4-dimethylamino-piperidin-1-yl)-2-oxo-ethyl]-3-(1,5-dimethyl-1H-pyrazol-4-yl)-N-(4-pyrimidin-5-yl-benzyl)-acrylamide]	354
O=C([C@H](Cc1ccccc1)N(Cc1ccccn1)C(=O)C=Cc1ccc(C(F)(F)F)cc1)N1CCC(Cc2ccccc2)CC1 [Example 44, (S)-N-[1-Benzyl-2-(4-benzyl-piperidin-1-yl)-2-oxo-ethyl]-N-pyridin-2-ylmethyl-3-(4-trifluoromethyl-phenyl)-acrylamide]	14
O=C([C@H](Cc1ccccc1)N(Cc1ccccc1)C(=O)C=Cc1ccc(C(F)(F)F)cc1)N1CCC(Cc2ccccc2)CC1 [Example 45, (S)-N-Benzyl-N-[1-benzyl-2-(4-benzyl-piperidin-1-yl)-2-oxo-ethyl]-3-(4-trifluoromethyl-phenyl)-acrylamide]	4
O=C([C@H](Cc1ccccc1)N(Cc1ccc(-c2ccccn2)cc1)C(=O)C=Cc1ccc(C(F)(F)F)cc1)N1CCC(Cc2ccccc2)CC1 [Example 46, (S)-N-[1-Benzyl-2-(4-benzyl-piperidin-1-yl)-2-oxo-ethyl]-N-(4-pyridin-2-yl-benzyl)-3-(4-trifluoromethyl-phenyl)-acrylamide]	1
O=C([C@H](Cc1ccccc1)N(Cc1ccc(-c2cccnc2)cc1)C(=O)C=Cc1ccc(C(F)(F)F)nc1)N1CCC(Cc2ccccc2)CC1 [Example 47, (S)-N-[1-Benzyl-2-(4-benzyl-piperidin-1-yl)-2-oxo-ethyl]-N-(4-pyridin-3-yl-benzyl)-3-(6-trifluoromethyl-pyridin-3-yl)-acrylamide]	1
O=C([C@H](Cc1ccccc1)N(Cc1ccccc1)C(=O)C=Cc1ccc(C(F)(F)F)nc1)N1CCC(Cc2ccccc2)CC1 [Example 48, (S)-N-Benzyl-N-[1-benzyl-2-(4-benzyl-piperidin-1-yl)-2-oxo-ethyl]-3-(6-trifluoromethyl-pyridin-3-yl)-acrylamide]	8
O=C([C@H](Cc1ccccc1)N(Cc1ccc(-c2ccccn2)cc1)C(=O)C=Cc1ccc(C(F)(F)F)nc1)N1CCC(c2ccccc2)CC1 [Example 50, (S)-N-[1-Benzyl-2-oxo-2-(4-phenyl-piperidin-1-yl)-ethyl]-N-(4-pyridin-2-yl-benzyl)-3-(6-trifluoromethyl-pyridin-3-yl)-acrylamide]	13
CN(C)CC1CCN(C(=O)[C@H](Cc2ccccc2)N(Cc2ccc(-c3ccccn3)cc2)C(=O)C=Cc2ccc(C(F)(F)F)nc2)CC1 [Example 51, (S)-N-[1-Benzyl-2-(4-dimethylaminomethyl-piperidin-1-yl)-2-oxo-ethyl]-N-(4-pyridin-2-yl-benzyl)-3-(6-trifluoromethyl-pyridin-3-yl)-acrylamide]	90
O=C([C@H](Cc1ccccc1)N(Cc1ccc(-c2ccccn2)cc1)C(=O)C=Cc1ccc(C(F)(F)F)cc1)N1CCC(CN2CCCC2)CC1 [Example 52, (S)-N-[1-Benzyl-2-oxo-2-(4-pyrrolidin-1-ylmethyl-piperidin-1-yl)-ethyl]-N-(4-pyridin-2-yl-benzyl)-3-(4-trifluoromethyl-phenyl)-acrylamide]	92
CN(C)[C@@H]1CCN(C(=O)[C@H](Cc2ccccc2)N(Cc2ccc(-c3ccccn3)cc2)C(=O)C=Cc2ccc(C(F)(F)F)cc2)C1 [Example 53, N-[(S)-1-Benzyl-2-((R)-3-dimethylamino-pyrrolidin-1-yl)-2-oxo-ethyl]-N-(4-pyridin-2-yl-benzyl)-3-(4-trifluoromethyl-phenyl)-acrylamide]	14
CN(C)[C@H]1CCN(C(=O)[C@H](Cc2ccccc2)N(Cc2ccc(-c3ccccn3)cc2)C(=O)C=Cc2ccc(C(F)(F)F)cc2)C1 [Example 54, N-[(S)-1-Benzyl-2-((S)-3-dimethylamino-pyrrolidin-1-yl)-2-oxo-ethyl]-N-(4-pyridin-2-yl-benzyl)-3-(4-trifluoromethyl-phenyl)-acrylamide]	17
CN(C)[C@@H]1CCN(C(=O)[C@H](Cc2ccccc2)N(Cc2ccc(-c3ccccn3)cc2)C(=O)C=Cc2ccc(C(F)(F)F)nc2)C1 [Example 55, N-[(S)-1-Benzyl-2-((R)-3-dimethylamino-pyrrolidin-1-yl)-2-oxo-ethyl]-N-(4-pyridin-2-yl-benzyl)-3-(6-trifluoromethyl-pyridin-3-yl)-acrylamide]	65
CN(C)[C@H]1CCN(C(=O)[C@H](Cc2ccccc2)N(Cc2ccc(-c3ccccn3)cc2)C(=O)C=Cc2ccc(C(F)(F)F)nc2)C1 [Example 56, N-[(S)-1-Benzyl-2-((S)-3-dimethylamino-pyrrolidin-1-yl)-2-oxo-ethyl]-N-(4-pyridin-2-yl-benzyl)-3-(6-trifluoromethyl-pyridin-3-yl)-acrylamide]	58
O=C([C@H](Cc1ccccc1)N(Cc1ccc(-c2cncnc2)cc1)C(=O)C=Cc1ccc(C(F)(F)F)cc1)N1CCc2ccccc21 [Example 57, (S)-N-[1-Benzyl-2-(2,3-dihydro-indol-1-yl)-2-oxo-ethyl]-N-(4-pyrimidin-5-yl-benzyl)-3-(4-trifluoromethyl-phenyl)-acrylamide]	89
O=C([C@H](Cc1ccccc1)N(Cc1ccc(-c2ccccn2)cc1)C(=O)C=Cc1ccc(C(F)(F)F)nc1)N1Cc2ccccc2C1 [Example 58, (S)-N-[1-Benzyl-2-(1,3-dihydro-isoindol-2-yl)-2-oxo-ethyl]-N-(4-pyridin-2-yl-benzyl)-3-(6-trifluoromethyl-pyridin-3-yl)-acrylamide]	50
COCCN(C)C(=O)[C@H](Cc1ccccc1)N(Cc1ccc(N2CCOCC2)cc1)C(=O)C=Cc1cc(C)nn1C [Example 59, (S)-3-(2,5-Dimethyl-2H-pyrazol-3-yl)-N-{1-[(2-methoxy-ethyl)-methyl-carbamoyl]-2-phenyl-ethyl}-N-(4-morpholin-4-yl-benzyl)-acrylamide]	121
COCCN(C)C(=O)[C@H](Cc1ccccc1)N(Cc1ccc(N2CCOCC2)cc1)C(=O)C=Cc1c(C)nn(C)c1C [Example 60, (S)-N-{1-[(2-Methoxy-ethyl)-methyl-carbamoyl]-2-phenyl-ethyl}-N-(4-morpholin-4-yl-benzyl)-3-(1,3,5-trimethyl-1H-pyrazol-4-yl)-acrylamide]	48
COCCN(C)C(=O)[C@H](Cc1ccccc1)N(Cc1ccc(N2CCOCC2)cc1)C(=O)C=Cc1cnc(C)n1C [Example 61, (S)-3-(2,3-Dimethyl-3H-imidazol-4-yl)-N-{1-[(2-methoxy-ethyl)-methyl-carbamoyl]-2-phenyl-ethyl}-N-(4-morpholin-4-yl-benzyl)-acrylamide]	464
COCCN(C)C(=O)[C@H](Cc1ccccc1)N(Cc1ccc(N2CCOCC2)cc1)C(=O)C=Cc1csc(C)n1 [Example 62, (S)-N-{1-[(2-Methoxy-ethyl)-methyl-carbamoyl]-2-phenyl-ethyl}-3-(2-methyl-thiazol-4-yl)-N-(4-morpholin-4-yl-benzyl)-acrylamide]	138
COCCN(C)C(=O)[C@H](Cc1ccccc1)N(Cc1ccc(N2CCOCC2)cc1)C(=O)C=Cc1sc(C)nc1C [Example 63, (S)-3-(2,4-Dimethyl-thiazol-5-yl)-N-{1-[(2-methoxy-ethyl)-methyl-carbamoyl]-2-phenyl-ethyl}-N-(4-morpholin-4-yl-benzyl)-acrylamide]	87
COCCN(C)C(=O)[C@H](Cc1ccccc1)N(Cc1ccc(N2CCOCC2)cc1)C(=O)C=Cc1c(C)noc1C [Example 64, (S)-3-(3,5-Dimethyl-isoxazol-4-yl)-N-{1-[(2-methoxy-ethyl)-methyl-carbamoyl]-2-phenyl-ethyl}-N-(4-morpholin-4-yl-benzyl)-acrylamide]	180
COCCN(C)C(=O)[C@H](Cc1ccccc1)N(Cc1ccc(N2CCOCC2)cc1)C(=O)C=Cc1nc(C)oc1C [Example 65, (S)-3-(2,5-Dimethyl-oxazol-4-yl)-N-{1-[(2-methoxy-ethyl)-methyl-carbamoyl]-2-phenyl-ethyl}-N-(4-morpholin-4-yl-benzyl)-acrylamide]	269
